Patent publication US20250302846A1, “ANTIBIOTIC COMPOSITION AND METHODS OF USE THEREOF” (THE REGENTS OF THE UNIVERSITY OF COLORADO A BODY CORPORATE, priority 2022, published 2025)

Legend:
[1] = test system: S. aureus (FDA209); experiment: Membrane voltage with DiSC3(5) in Gram-positive bacteria; assay type: cell-based; settings: mid-log S. aureus FDA209 in LB
Procedure: A) D66 quenches the fluorescent dye DiSC3 (5) in a dose-dependent manner. Data were normalized to DMSO at time 0. Relative fluorescent units (RFU). Mean and SEM of three biological replicates performed with technical triplicates. B, C) Mid-log phase S. aureus (FDA209) in LB were treated at time 0 with DMSO, gramicidin [2 μg/mL], or D66 (1x MIC95=130 μM). B) Fold change in RFU. Data are normalized to DMSO at time 0. C) Data normalized to account for the quenching effect of D66 on DiSC3 (5) observed in A. Mean and SEM of three biological replicates performed with technical triplicates. D) Bacillus subtilis expressing mNeonGreen-FtsZ at stationary phase in LB were placed on agar pads containing D66 at the indicated concentration (1x MIC95=89 μM). Confocal microscope images were taken after 15 minutes to ascertain whether D66 disrupted the septal localization of FtsZ.

[2] = test system: RAW 264.7 cells; experiment: Mitochondrial membrane potential with TMRM; settings: uninfected RAW 264.7 cells; D66 first two hours; CCCP 7 μM
[3] = test system: S. aureus FDA209; experiment: Laurdan generalized polarization membrane fluidity assay; assay type: cell-based; settings: mid-log S. aureus FDA209
Procedure: Mid-log phase S. aureus FDA209 cells were used for all experiments. A) Membrane fluidity was evaluated with a Laurdan generalized polarization (GP) assay. Cells were exposed at time 0 to DMSO, benzyl alcohol (BnOH, a membrane fluidizer [50 mM]), or D66 (1x MIC95=130 μM). Mean and SEM of three biological replicates performed with technical triplicates. B) Membrane permeability was monitored by PI fluorescence. Cells were exposed at time 0 to DMSO, SDS [0.3%], or D66. Samples were processed at the timepoints shown. Mean and SEM of three biological replicates performed with technical triplicates. C) Intracellular pH was monitored with the fluorescent probe BCECF-AM. Cells were exposed at time 0 to DMSO, the protonophore CCCP [100 μM], or D66. Mean and SEM of three biological replicates performed with technical triplicates. D) Intracellular ATP levels measured using the Promega BacTiter-Glo kit after 30 minutes of treatment with DMSO, chloramphenicol (Chlor), or D66. Mean and SEM of three biological replicates performed with technical triplicates. E) Respiration rates of cells incubated with resazurin and treated at time 0 as indicated. Mean and […]

## O=C(Nc1cc(Cl)cc(Cl)c1)N1CCCN(Cc2ccccc2)CC1 [D66]
[1]
  voltage across the bacterial cytoplasmic membrane: rapidly disrupts voltage across the bacterial cytoplasmic membrane
[2]
  TMRM fluorescence (mitochondrial membrane potential): increased TMRM signal in a dose-dependent manner
[3]
  membrane fluidity: rapidly increases membrane fluidity
